Laboratory results reported in patent US20240228504A1, “SUBSTITUTED TRICYCLIC AMIDES, ANALOGUES THEREOF, AND METHODS USING SAME” (Arbutus Biopharma Corporation, priority 2020, published 2024).
pEC50: −log10 of the molar value.

test system: HBV rcDNA in HepDE19 cells; test: HepDE19 assay with bDNA quantitation of HBV rcDNA; type: cell-based, hepatitis B virus; details: HepDE19 assay, inhibition of rcDNA formation, bDNA quantitation; read-out: DE-19bDNA EC50

Row | SMILES | pEC50
1 | CN(C(=O)c1cc2c(F)cc(F)cc2[nH]1)C1CNCc2[nH]c(=O)c3cc(F)c(F)cc3c21 (single isomer, unassigned) [Compound 118, N-(8,9-Difluoro-6-oxo-1,2,3,4,5,6-hexahydrobenzo[c][1,7]naphthyridin-1-yl)-4,6-difluoro-N-methyl-1H-indole-2-carboxamide] | 5.92
2 | CN(C(=O)c1cc2c(F)c(F)ccc2[nH]1)C1CNCc2[nH]c(=O)c3cc(F)c(F)cc3c21 (single isomer, unassigned) [Compound 119, N-(8,9-Difluoro-6-oxo-1,2,3,4,5,6-hexahydrobenzo[c][1,7]naphthyridin-1-yl)-4,5-difluoro-N-methyl-1H-indole-2-carboxamide] | 8.00
3 | CN(C(=O)c1cc2c(F)c(F)ccc2[nH]1)C1CNCc2[nH]c(=O)c3cc(F)c(F)cc3c21 (single isomer, unassigned) [Compound 120, N-(8,9-Difluoro-6-oxo-1,2,3,4,5,6-hexahydrobenzo[c][1,7]naphthyridin-1-yl)-4,5-difluoro-N-methyl-1H-indole-2-carboxamide] | 6.07
4 | CN(C(=O)c1cc2ccc(Cl)cn2c1)C1CNCc2[nH]c(=O)c3cc(F)c(F)cc3c21 (single isomer, unassigned) [Compound 121, 6-Chloro-N-(8,9-difluoro-6-oxo-1,2,3,4,5,6-hexahydrobenzo[c][1,7]naphthyridin-1-yl)-N-methylindolizine-2-carboxamide] | 7.52
5 | CN(C(=O)c1cc2ccc(Cl)cn2c1)C1CNCc2[nH]c(=O)c3cc(F)c(F)cc3c21 (single isomer, unassigned) [Compound 122, 6-Chloro-N-(8,9-difluoro-6-oxo-1,2,3,4,5,6-hexahydrobenzo[c][1,7]naphthyridin-1-yl)-N-methylindolizine-2-carboxamide] | 5.92
6 | CN(C(=O)c1cc2c(F)cccn2c1)C1C[S+]([O-])Cc2[nH]c(=O)c3cc(F)c(F)cc3c21 (single isomer, unassigned) [Compound 149, N-(8,9-Difluoro-3-oxido-6-oxo-1,4,5,6-tetrahydro-2H-thiopyrano[3,4-c]isoquinolin-1-yl)-8-fluoro-N-methylindolizine-2-carboxamide] | 6.82
7 | CN(C(=O)c1cc2c(F)cccn2c1)C1C[S+]([O-])Cc2[nH]c(=O)c3cc(F)c(F)cc3c21 (single isomer, unassigned) [Compound 150, N-(8,9-Difluoro-3-oxido-6-oxo-1,4,5,6-tetrahydro-2H-thiopyrano[3,4-c]isoquinolin-1-yl)-8-fluoro-N-methylindolizine-2-carboxamide] | 5.96
8 | CN(C(=O)c1cc2c(F)cccn2c1)C1CS(=O)(=O)Cc2[nH]c(=O)c3cc(F)c(F)cc3c21 (single isomer, unassigned) [Compound 151, N-(8,9-Difluoro-3,3-dioxido-6-oxo-2,4,5,6-tetrahydro-1H-thiopyrano[3,4-c]isoquinolin-1-yl)-8-fluoro-N-methylindolizine-2-carboxamide] | 5.44
9 | CN(C(=O)c1cc2c(F)cccn2c1)C1CS(=O)(=O)Cc2[nH]c(=O)c3cc(F)c(F)cc3c21 (single isomer, unassigned) [Compound 152, N-(8,9-Difluoro-3,3-dioxido-6-oxo-2,4,5,6-tetrahydro-1H-thiopyrano[3,4-c]isoquinolin-1-yl)-8-fluoro-N-methylindolizine-2-carboxamide] | 6.14
10 | CN(C(=O)c1cc2c(F)cccn2c1)C1CNCc2[nH]c(=O)c3cc(F)c(F)cc3c21 (single isomer, unassigned) [Compound 160, N-(8,9-Difluoro-6-oxo-1,2,3,4,5,6-hexahydrobenzo[c][1,7]naphthyridin-1-yl)-8-fluoro-N-methylindolizine-2-carboxamide] | 4.79
11 | CN(C(=O)c1cc2c(F)cccn2c1)C1CNCc2[nH]c(=O)c3cc(F)c(F)cc3c21 (single isomer, unassigned) [Compound 161, N-(8,9-Difluoro-6-oxo-1,2,3,4,5,6-hexahydrobenzo[c][1,7]naphthyridin-1-yl)-8-fluoro-N-methylindolizine-2-carboxamide] | 7.70
